# Values quoted from earlier work in patent US20050267091A1 (priority 2004, published 2005).
# Tests used:
# [1] = in vivo
# [2] = not given; remark: listed apart in the source
compound,measurement,setting,value
O=C(O)c1cccnc1 [Niacin],increase of blood levels of HDL cholesterol,[1],up to 35%
same,reduction of total cholesterol,[1],up to 15%
same,reduction of triglyceride levels,[1],up to 30%
same,patients affected by flushing (redness) of the face and neck,most common side effect,more than three quarters of patients
same,patients who discontinue because of adverse effects,patients treated with standard niacin,more than 40%
"CC(C)c1nc(N(C)S(C)(=O)=O)nc(-c2ccc(F)cc2)c1/C=C/[C@@H](O)C[C@@H](O)CC(=O)O [Crestor®, rosuvastatin]",cases of serious side effects,"[2]; cited by consumer advocacy group, March 2004",16 cases
"COCc1c(C(C)C)nc(C(C)C)c(/C=C/[C@@H](O)C[C@@H](O)CC(=O)O)c1-c1ccc(F)cc1 [Baycol®, cervastatin]",deaths linked to the drug,[2]; market withdrawal August 2001,31 deaths
